Results published in patent US20230417736A1, “MONITORING MEMBRANE PROTEIN TRAFFICKING FOR DRUG DISCOVERY AND DRUG DEVELOPMENT” (UNIVERSITY OF HOUSTON SYSTEM, priority 2020, published 2023).

Target: T1, human β2AR (Homo sapiens, UniProt P07550)
T1 construct: expressed in transfected cells
Test: GPCR internalization assay using NanoBiT technology (β2AR-SmBiT with LgBiT-FYVE, early endosomes)
Assay type: cell-based
Details: for Internalization of GPCRs (luminescent signal) in the presence of endocytosis inhibitors: 10 μM of endocytosis inhibitors, cells pretreated, then ligand stimulation
Excerpt: Applicant initially focused on studying the different internalization rates of class A G-protein coupled receptors (GPCRs). For this, Applicant first established a set of GPCRs involved in a wide variety of physiological functions and diseases such as Galanin (GAL receptors), Chemokine receptors (CCR), and β-adrenergic receptors ((βAR). Applicant devised a strategy to monitor how the GPCR bound to its corresponding ligand is removed from the cell surface, subsequently localized in early endosomes, and then finally recycled into the cell membrane. To accomplish this, Applicant covalently linked a small fragment of NLuc (SmBiT) to the C-terminal of the receptor, where a flexible linker is located between the two proteins (FIGS. 9-10). This linker was designed to be composed mainly of glycine and alanine amino acids to provide flexibility and not to alter the pharmacological properties of the native receptor (FIGS. 2A-2B).
FYVE domains bind phosphatidylinositol 3-phosphate from early endosomes, in a manner that is dependent on its metal ion coordination and basic amino acids. This FYVE domain inserts into cell membranes in a pH-dependent manner, where it is composed of two small beta hairpins (or zinc knuckles) and followed by an alpha helix. Additionally, the FYVE finger binds two zinc ions where this FYVE finger has eight potential zinc coordinating cysteine positions and is characterized by having basic amino acids around the cysteines. To achieve this, the gene of the FYVE domain of the human Endofin (residues from Q739 to K806) was synthesized and covalently attached by molecular cloning into a large fragment of NLuc (LgBiT) at the N-termini (FIGS. 2A-2B).
The ability to monitor internalization in response to ligand stimulation was assessed in HEK293 cells expressing the corresponding human receptor. In the case of GPCRs, the assay was performed using the corresponding endogenous ligands (i.e., epinephrine).
HEK293 cells were maintained in Dulbecco's modified Eagle's medium (DMEM) supplemented with 10% fetal bovine serum (FBS), 100 U/ml penicillin G, and […] streptomycin (Invitrogen; Carlsbad, CA, USA). At 1 day before transfection, the cells were seeded in 96-well plates at a density of 2.5×10^4 cells per well. […] After a 10 minute incubation, 25 μl substrate (furimazine) was added, and once every minute subsequent luminescence measurements were taken for 5-10 minutes for signal stabilization. A total of 10 μl of ligand, antibody, or viral suspension was then added to each well and luminescence measurements were recorded immediately and once every minute for 1-3 hours (Synergy 2 Multi-Mode Microplate Reader BioTek, Winooski, VT, USA).

T1 sequence (P07550 whole entry): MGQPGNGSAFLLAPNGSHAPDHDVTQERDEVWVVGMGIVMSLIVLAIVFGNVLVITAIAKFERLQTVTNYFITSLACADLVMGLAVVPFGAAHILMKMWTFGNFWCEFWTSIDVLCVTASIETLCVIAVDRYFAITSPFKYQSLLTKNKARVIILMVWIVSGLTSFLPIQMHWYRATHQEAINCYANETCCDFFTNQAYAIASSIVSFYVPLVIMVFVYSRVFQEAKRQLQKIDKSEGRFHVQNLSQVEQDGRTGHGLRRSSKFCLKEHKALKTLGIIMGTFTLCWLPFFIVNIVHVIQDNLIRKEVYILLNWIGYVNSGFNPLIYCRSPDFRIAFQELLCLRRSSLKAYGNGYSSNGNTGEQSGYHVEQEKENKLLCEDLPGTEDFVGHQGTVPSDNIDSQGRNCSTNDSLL

Internalization of GPCRs (luminescent signal) in the presence of endocytosis inhibitors | Compound | Blue luminescent signal (β2AR translocation into early endosomes) in response to the agonist (different concentrations of epinephrine)
inhibited | O=C(N/N=C/c1ccc(O)c(O)c1)c1cc2ccccc2cc1O [Dynasore] | –
inhibited | O=C1N=C(NS(=O)(=O)c2cccc3ccccc23)SC1=Cc1ccc(Br)cc1 [PiTStop] | –
inhibited | Cn1c(CNc2cccc(C(=O)NCc3ccccc3C(F)(F)F)c2)nnc1-c1ccncc1 [Cmpd101] | –
– | CNC[C@H](O)c1ccc(O)c(O)c1 [epinephrine] | increased the blue luminescent signal in a concentration-dependent manner
